Data: patent publication US6413995B1, “Cinnamamide derivatives and drug compositions containing the same” (Tsumura & Co., priority 1999, dated 2002)
Read-outs that look alike come from different tables or passages of the source.

How the values were obtained:
IL-12 = experiment: Inhibition of IL-12 production by mouse peritoneal macrophages (ELISA); type: cell-based, mice; conditions: Macrophage, read-out: Inhibitory rate (%) IL-12; for inhibition at 10 µg/mL: 10 μg/ml; for inhibition at 50 µg/mL: 50 μg/ml; for inhibition at 100 µg/mL: 100 μg/ml; for inhibition at 1 µg/mL: 1 μg/ml; for inhibition at 5 µg/mL: 5 μg/ml; for inhibition at 10 µM: 10 μM/L
Experimental: (§1) C57BL/6CrSlc male mice were intraperitoneally injected with 2.0 ml of 3% Brewer tioglycolate medium. Three days later, macrophages were collected from the abdominal cavity with 5.0 ml Hank's balanced salt solution, and then equally divided into each well of a 48-well plate using RPMI 1640 medium supplemented with 10% FBS (Fetal Bovine Serum), followed by incubation in a CO2 incubator for 1 hour. After the macrophages adhered to the walls of the plate, they were incubated for 48 hours in the presence of a test compound with different concentrations. Following the incubation, the supernatant was collected from each well, assayed for IL-6, IL-10 and L-12 by ELISA to determine inhibitory rates against the production of these interleukins.

IL-10 = experiment: Inhibition of IL-10 production by mouse peritoneal macrophages (ELISA); type: cell-based, mice; conditions: Macrophage, 48 hours, read-out: Inhibitory rate (%) IL-10; for inhibition at 10 µg/mL: 10 μg/ml; for inhibition at 50 µg/mL: 50 μg/ml; for inhibition at 100 µg/mL: 100 μg/ml; for inhibition at 1 µg/mL: 1 μg/ml; for inhibition at 5 µg/mL: 5 μg/ml
Experimental: as §1

IL-6 = experiment: Inhibition of IL-6 production by mouse peritoneal macrophages (ELISA); type: cell-based, mice; conditions: Macrophage, 48 hours, read-out: Inhibitory rate (%) IL-6; for inhibition at 10 µg/mL: 10 μg/ml; for inhibition at 50 µg/mL: 50 μg/ml; for inhibition at 100 µg/mL: 100 μg/ml; for inhibition at 1 µg/mL: 1 μg/ml; for inhibition at 5 µg/mL: 5 μg/ml
Experimental: as §1

[1] = tested on: Rats with Minimal Change Nephrosis; experiment: Inhibitory effects on urinary proteins in rats with minimal change nephrosis (Puromycin Aminonucleoside); type: in vivo; conditions: S.D. male rats, PA 50 mg/kg i.v., test drug 2 mg/kg/day from day 6 to day 11, assayed at day 11
Experimental: Six week old S.D. male rats were intravenously injected with Puromycin Aminonucleoside (PA; SIGMA)at a dose of 50 mg/kg so as to develop nephrosis. Six days after PA treatment, the rats were administered with a test drug at a dose of 2 mg/kg/day by day 11. Each rat was assayed for an excreted urinary protein level at day 11 to determine an inhibitory rate.

Thromboxane A2 Synthase = biological target: T1, Thromboxane A2 Synthase (Rattus norvegicus, UniProt P49430); experiment: Inhibitory effect on thromboxane A2 synthase: TXB2 in rat platelet rich plasma; type: cell-based, rats; conditions: 10 μmol/l, rat PRP
T1 construct: centrifuged at 1,300 rpm for 7 minutes to obtain platelet rich plasma (PRP); from tissue; host or cells: platelet rich plasma (washed platelets) from the abdominal aorta blood of Sprague-Dawley rats
T1 sequence (P49430 1-533): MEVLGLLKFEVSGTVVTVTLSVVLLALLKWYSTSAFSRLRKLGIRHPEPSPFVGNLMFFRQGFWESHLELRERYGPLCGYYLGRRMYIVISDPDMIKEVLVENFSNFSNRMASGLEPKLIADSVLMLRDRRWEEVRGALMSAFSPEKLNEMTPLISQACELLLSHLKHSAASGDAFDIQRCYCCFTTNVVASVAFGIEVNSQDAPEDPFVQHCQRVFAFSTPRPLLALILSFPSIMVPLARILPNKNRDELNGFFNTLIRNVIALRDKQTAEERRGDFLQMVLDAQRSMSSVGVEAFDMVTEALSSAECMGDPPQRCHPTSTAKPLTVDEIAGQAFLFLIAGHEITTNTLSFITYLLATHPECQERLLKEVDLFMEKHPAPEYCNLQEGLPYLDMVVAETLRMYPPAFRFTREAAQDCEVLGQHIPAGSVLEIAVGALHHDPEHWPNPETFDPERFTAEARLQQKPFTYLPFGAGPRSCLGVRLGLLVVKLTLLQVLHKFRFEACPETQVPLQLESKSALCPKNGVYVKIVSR
Experimental: Eight week old Sprague-Dawley male rats were used in this example. The rats were anesthetized with pentobarbital sodium. The blood was collected from the abdominal aorta using a heparinized syringe, and centrifuged at 1,300 rpm for 7 minutes to obtain platelet rich plasma (PRP). PRP was suspended in an equivalent volume of a buffer containing 25 mmol/l Tris-HCl, 130 mmol/l sodium chloride and 0.3 mmol/l EDTA (pH 7.4)(buffer A), followed by centrifugation at 4° C., at 1,500 rpm for 5 minutes. This procedure was repeated twice, and PRP was finally suspended in a buffer containing 25 mmol/l Tris-HCl, 130 mmol/l, 0.1% glucose and 0.1% albumin (pH7.4)(buffer B).
5×10^6 cells/mm^3 PRP preparation in buffer B was divided into each well of a 96-well plate in an amount of 150 μl/well. Each test substance was prepared at a final concentration of 10 μmol/l and added to the PRP preparation in an amount of 50 μl/well. Immediately after addition of the test substance, 5 μl of an aggregation-inducing agent, type IV collagen (1 mg/ml) or arachidonic acid (50 mmol/l), was added and incubated for 10 minutes. 20 μl of an EDTA-indomethacin solution was added to the each well to stop the reaction. The supernatant was assayed for thromboxane B2 (TXB2), stable metabolite of thromboxane A2 (TXA2), using a TXB2 measurement kit (Cayman).

[2] = arachidonic acid, 10 minutes, read-out: TXB2 induced by arachidonic acid (Inhibitory rate; %)
[3] = type IV collagen, 10 minutes, read-out: TXB2 induced by collagen (Inhibitory rate; %)
[4] = summary of Table 3, read-out: inhibitory activity against TXA2 production mediated by collagen or arachidonate

SMILES: CCOC(=O)COc1ccc(/C=C/C(=O)N(C)Cc2cccnc2)cc1 [Example 2, Ethyl [4-[(E)-2-[N-Methyl-N-(3-pyridylmethyl)carbamoyl]ethenyl]phenoxy]-acetate]
- inhibition at 10 µg/mL (IL-12; 48 hours): 35%
- inhibition at 50 µg/mL (IL-12; 48 hours): 63.8%
- inhibition at 100 µg/mL (IL-12; 48 hours): 65.4%
- inhibition at 10 µg/mL (IL-10): 27.8%
- inhibition at 50 µg/mL (IL-10): 51.4%
- inhibition at 100 µg/mL (IL-10): 50%
- inhibition at 10 µg/mL (IL-6): 58.8%
- inhibition at 50 µg/mL (IL-6): 78.9%
- inhibition at 100 µg/mL (IL-6): 88%

SMILES: COC(=O)COc1ccc(/C=C/C(=O)NCc2cccnc2)cc1 [Example 7, methyl [4-[(E)-2-[N-(3-pyridylmethyl)carbamoyl]ethenyl]phenoxy]acetate]
- inhibition at 1 µg/mL (IL-12; 48 hours): 28.4%
- inhibition at 5 µg/mL (IL-12; 48 hours): 40.1%
- inhibition at 10 µg/mL (IL-12; 48 hours): 52.5%
- Inhibitory rate (%) of excreted urinary protein level [1]: 50%
- inhibition at 1 µg/mL (IL-10): 17.9%
- inhibition at 5 µg/mL (IL-10): 1.3%
- inhibition at 10 µg/mL (IL-10): 25.4%
- inhibition at 1 µg/mL (IL-6): 13.5%
- inhibition at 5 µg/mL (IL-6): 31.5%
- inhibition at 10 µg/mL (IL-6): 32.5%

SMILES: CCOC(=O)COc1ccc(/C=C/C(=O)NCCc2cccnc2)cc1 [Example 10]
- inhibition at 10 µg/mL (IL-12; 48 hours): 30.3%
- inhibition at 50 µg/mL (IL-12; 48 hours): 27.8%
- inhibition at 100 µg/mL (IL-12; 48 hours): 35%
- Inhibitory rate (%) of excreted urinary protein level [1]: 56%
- inhibition at 10 µg/mL (IL-10): 29.5%
- inhibition at 50 µg/mL (IL-10): 33.3%
- inhibition at 100 µg/mL (IL-10): 27.8%
- inhibition at 10 µg/mL (IL-6): 61.2%
- inhibition at 50 µg/mL (IL-6): 63.5%
- inhibition at 100 µg/mL (IL-6): 61.6%

SMILES: COC(=O)COc1ccc(/C=C/C(=O)NCCc2ccccn2)cc1 [Example 16]
- inhibition at 1 µg/mL (IL-12; 48 hours): 31.4%
- inhibition at 5 µg/mL (IL-12; 48 hours): 47.4%
- inhibition at 10 µg/mL (IL-12; 48 hours): 40.3%
- Inhibitory rate (%) of excreted urinary protein level [1]: 42%
- inhibition at 1 µg/mL (IL-10): 49.9%
- inhibition at 5 µg/mL (IL-10): 50.1%
- inhibition at 10 µg/mL (IL-10): 34.9%
- inhibition at 1 µg/mL (IL-6): 26.1%
- inhibition at 5 µg/mL (IL-6): 41.3%
- inhibition at 10 µg/mL (IL-6): 79%

SMILES: COC(=O)COc1ccc(/C=C/C(=O)NCc2ccccn2)cc1 [Example 29]
- inhibition at 10 µg/mL (IL-12; 48 hours): 37.6%
- inhibition at 10 µg/mL (IL-10): -25.7%
- inhibition at 10 µg/mL (IL-6): -9.5%

SMILES: COC(=O)COc1ccc(/C=C/C(=O)NCCc2ccncc2)cc1 [Example 30]
- inhibition at 10 µg/mL (IL-12; 48 hours): 71.7%
- inhibition at 10 µg/mL (IL-10): -38.9%
- inhibition at 10 µg/mL (IL-6): 58.8%

SMILES: Cl.O=C(O)COc1ccc(/C=C/C(=O)NCc2cccnc2)cc1 [Example 36, [4-[(E)-2-[N-(3-pyridylmethyl)carbamoyl]ethenyl]phenoxy]acetic acid hydrochloride]
- inhibition at 10 µg/mL (IL-12; 48 hours): 52.1%
- inhibition at 50 µg/mL (IL-12; 48 hours): 82.1%
- inhibition at 100 µg/mL (IL-12; 48 hours): 64%
- Inhibitory rate (%) of excreted urinary protein level [1]: 29%
- inhibition at 10 µg/mL (IL-10): -45.8%
- inhibition at 50 µg/mL (IL-10): -13%
- inhibition at 100 µg/mL (IL-10): 22.2%
- inhibition at 10 µg/mL (IL-6): 53.1%
- inhibition at 50 µg/mL (IL-6): 56.7%
- inhibition at 100 µg/mL (IL-6): 21.7%

SMILES: O=C(O)COc1ccccc1/C=C/C(=O)NCc1cccnc1 [Example 37]
- inhibition at 10 µM (Thromboxane A2 Synthase; [2]): 26%
- inhibition at 10 µM (Thromboxane A2 Synthase; [3]): 26%

SMILES: NC(=O)COc1ccc(/C=C/C(=O)NCc2cccnc2)cc1 [Example 41]
- inhibition at 10 µM (Thromboxane A2 Synthase; [2]): 36%
- inhibition at 10 µM (Thromboxane A2 Synthase; [3]): 14%

SMILES: O=C(/C=C/c1ccccc1OCC(=O)NO)NCc1cccnc1 [Example 53]
- inhibition at 10 µM (Thromboxane A2 Synthase; [2]): 56%
- inhibition at 10 µM (Thromboxane A2 Synthase; [3]): 43%
- inhibition at 10 µM (Thromboxane A2 Synthase; [4]): ≥ 50%

SMILES: CNC(=S)COc1ccccc1/C=C/C(=S)NCc1cccnc1 [Example 65, (E)-3-[2-[[N-(Methyl)thiocarbamoyl]methoxy]phenyl]-N-(3-pyridylmethyl)-2-propenoic Acid Thioamide]
- inhibition at 10 µM (Thromboxane A2 Synthase; [2]): 23%
- inhibition at 10 µM (Thromboxane A2 Synthase; [3]): 12%

SMILES: CN(Cc1cccnc1)C(=O)/C=C/c1ccc(OCC(=O)O)cc1 [Example 72]
- inhibition at 10 µM (Thromboxane A2 Synthase; [2]): 61%
- inhibition at 10 µM (Thromboxane A2 Synthase; [3]): 46%
- inhibition at 10 µM (Thromboxane A2 Synthase; [4]): ≥ 50%

SMILES: O=C(O)COc1ccc(/C=C/C(=O)NCCc2ccccn2)cc1 [Example 73]
- inhibition at 10 µM (Thromboxane A2 Synthase; [2]): 23%
- inhibition at 10 µM (Thromboxane A2 Synthase; [3]): 47%

SMILES: O=C(/C=C/c1ccc(OC(F)(F)C(=O)O)cc1)NCc1cccnc1 [Example 74]
- inhibition at 10 µM (IL-12; 48 hours): 51.1%

SMILES: COC(=O)/C=C/c1ccc(/C=C/C(=O)NCc2cccnc2)cc1 [Example 76]
- inhibition at 10 µM (IL-12; 48 hours): 50%

SMILES: COC(=O)CCc1ccc(/C=C/C(=O)NCCc2ccccn2)cc1 [Example 78]
- inhibition at 10 µM (IL-12; 48 hours): 49.2%

SMILES: O=C(O)CCc1ccc(/C=C/C(=O)NCCc2ccccn2)cc1 [Example 79]
- inhibition at 10 µM (IL-12; 48 hours): 43%

SMILES: COC(=O)CC(O)c1ccc(/C=C/C(=O)NCc2cccnc2)cc1 (centres unmarked) [Example 80, methyl 3-hydroxy-3-[4-[2-[N-(3-pyridylmethyl)carbamoyl]ethenyl]phenyl]propionate]
- inhibition at 10 µM (IL-12; 48 hours): 52.3%

SMILES: CCOC(=O)COc1ccc(/C=C(\C#N)C(=O)NCc2cccnc2)cc1 [Example 81, Ethyl [4-[2-Cyano-2-[N-(3-pyridylmethyl)carbamoyl]ethenyl]phenoxy]acetate]
- inhibition at 10 µM (IL-12; 48 hours): 41%

SMILES: N#C/C(=C\c1ccc(OCC(=O)O)cc1)C(=O)NCc1cccnc1 [Example 82, Sodium [4-[2-Cyano-2-[N-(3-pyridylmethyl)carbamoyl]ethenyl]phenoxy]acetate]
- inhibition at 10 µM (IL-12; 48 h): 30.7%

SMILES: N#C/C(=C\c1ccc(OCC(=O)O)cc1)C(=O)NCc1cccnc1 [Example 83, [4-[2-Cyano-2-[N-(3-pyridylmethyl)carbamoyl]ethenyl]phenoxy]acetic Acid]
- inhibition at 10 µM (IL-12; 48 hours): 40.9%

SMILES: CN(C)C(=O)COc1ccc(/C=C(\C#N)C(=O)NCc2cccnc2)cc1 [Example 84]
- inhibition at 10 µM (IL-12; 48 hours): 38.9%

SMILES: CCOC(=O)COc1ccc(/C(C)=C/C(=O)NCc2cccnc2)cc1 [Example 85, Ethyl [4-[(E)-1-Methyl-2-[N-(3-Pyridylmethyl)carbamoyl]ethenyl]phenoxy]acetate]
- inhibition at 10 µM (IL-12; 48 hours): 47.4%

SMILES: O=C(O)CNc1ccc(/C=C/C(=O)NCc2cccnc2)cc1 [Example 88, [[4-[(E)-2-[N-(3-Pyridylmethyl)carbamoyl]ethenyl]phenyl]amino]acetic Acid]
- inhibition at 10 µM (IL-12; 48 hours): 26.4%
